Measured values: patent US12319752B2, “Heparin-binding cationic peptide self-assembling peptide amphiphiles useful against drug-resistant bacteria” (priority 2016, dated 2025)
Values after ≈ are worked out from the molar mass of the structure shown. Residues, ends and D or L forms follow the SMILES beside them. *: point of attachment. Palmitoyl = CCCCCCCCCCCCCCCC(=O)*

Legend:
[1] = test system: MRSA; assay: Viable colony count assay (bactericidal effect, 4 h); assay type: cell-based, methicillin-resistant S. aureus (MRSA, ATCC #43300)
Protocol: (§1) The bactericidal effects of the peptides were examined using a viable colony count assay as well as the live/dead staining assay. For the viable colony count assay, bacteria were treated with peptides for 4 h and the resulting viable bacterial density of each sample was expressed by log10[CFU/mL]. For the Gram-positive bacteria tested, the decrease in bacterial density was dependent on the concentration of the ACA-PA (FIG. 8A). […] As for Gram-negative E. coli and MDR E. coli bacteria (FIG. 8B), the ACA nanorods, wherein the PA were added at a concentration above their CMC, had potent bactericidal effects. For example, the ACA nanorods at concentrations over 60 μM reduced the colony forming units of Gram-negative bacteria by about a five log unit reduction after 4 h compared with the untreated negative control sample.
(§2) In addition, ACA-PA were mixed with heparin at various weight ratios (1:1, 1:2, and 1:3 ACA-PA to heparin ratios) to block the Cardin motif groups on the PA. The ACA-PA concentration used to treat bacteria (MRSA and MDR E. coli) was a constant 80 μM and only varied in the concentration of heparin.
(§3) The viable count assay was performed to quantify the bactericidal activity of each peptide. Stock solutions of peptides were diluted in 3% TSB media to concentrations ranging from 20 μM to 100 μM immediately before experiments. Heparin-ACA-PA were also prepared by mixing the ACA-PA stock solution with heparin (sodium salt from porcine intestinal mucosa, Sigma, St. Louis, MO) to 1:1, 1:2 and 1:3 weight ratios in water, and a final concentration of ACA-PA in the heparin-ACA-PA at each heparin weight ratio was adjusted to 80 μM for each experiment. The bacteria (10^6 CFU/mL) were incubated with peptides at 37° C. for 4 h. After incubation, serial dilutions of samples were plated on TSB agar and then incubated at 37° C. overnight. The colonies from each spot were manually counted, and the CFU number for each sample was determined. Experiments were conducted in triplicate and results were expressed as the log 10 values of the CFU number in each sample. Data were expressed by stand error of the mean (±S.E.M.) and N=3, *p<0.05 compared with control samples and #p<0.05 compared with bacteria treated with 40 μM of ACA-PA.

[2] = test system: MDR E. coli; assay: as above; assay type: cell-based, multidrug-resistant E. coli (MDR E. coli, ATCC #BAA-2471)
Protocol: as §1, §2, §3

[3] = test system: E. coli; assay: as above; assay type: cell-based, Escherichia coli (ATCC #25922)
Protocol: as §1, §3

[4] = test system: S. aureus; assay: as above; assay type: cell-based, Staphylococcus aureus (ATCC #25923)
Protocol: as §1, §3

[5] = test system: MDR E. coli; assay type: cell-based, multidrug-resistant E. coli (MDR E. coli, ATCC #BAA-2471); settings: 24 h
Protocol: This assay was performed to investigate the inhibitory effects of each peptide against Gram-positive Staphylococcus aureus (S. aureus, ATCC #25923) and methicillin-resistant S. aureus (MRSA, ATCC #43300), as well as Gram-negative Escherichia coli (E. coli, ATCC #25922), and multidrug-resistant E. coli (MDR E. coli, ATCC #BAA-2471). In all experiments, solutions of each peptide at the concentrations from 20 μM to 100 μM in 3% Tryptic Soy Broth (TSB) media were freshly prepared. A single colony of bacteria was isolated from a stock agar plate and cultured overnight in 4 mL of 3% TSB on a shaking incubator set at 200 rpm and 37° C. […] The bacteria were incubated inside a spectrophotometer (Spectra-Max Paradigm, Molecular Devices, Sunnyvale, CA) at 37° C. under static conditions for 20 h, and the bacterial growth curves were measured in terms of turbidity at OD562 every 2 minutes. The normalized OD562 values of samples were calculated by subtracting the […].
The minimum inhibitory concentration (MIC) of ACA-PA was tested against drug-resistant bacteria and compared with conventional penicillin-streptomycin (10,000 U/mL, Thermo Fisher Scientific, Waltham, MA, USA) as well. […] The OD562 was measured at the end of treatment. […]

[6] = test system: E. coli; assay: Bacterial growth inhibition (growth curves, OD562, 20 h); assay type: cell-based, Escherichia coli (ATCC #25922)
Protocol: Gram-positive (S. aureus and MRSA) and Gram-negative (E. coli and MDR E. coli) bacteria were incubated with peptide concentrations ranging from 20 to 100 μM, and time-lapsed bacterial growth was monitored for 20 hours by determining the optical density at 562 nm (O.D. 562 nm). […] At the highest concentration tested (100 μM), the time to exponential growth phase of S. aurues was delayed by about 18 h (FIG. 5B), and was prolonged by almost 13 h for MRSA (FIG. 5A), while bacteria incubated without ACA-PA entered the exponential growth phase within 4 h. Gram-positive bacteria were also susceptible to the ACA-PA even below their CMC.
The MIC values of ACA-PA towards drug-resistant bacteria were determined after 24 h of incubation (Table 2).
This assay was performed to investigate the inhibitory effects of each peptide against Gram-positive Staphylococcus aureus (S. aureus, ATCC #25923) and methicillin-resistant S. aureus (MRSA, ATCC #43300), as well as Gram-negative Escherichia coli (E. coli, ATCC #25922), and multidrug-resistant E. coli (MDR E. coli, ATCC #BAA-2471). In all experiments, solutions of each peptide at the concentrations from 20 μM to 100 μM in 3% Tryptic Soy Broth (TSB) media were freshly prepared. A single colony of bacteria was isolated from a stock agar plate and cultured overnight in 4 mL of 3% TSB on a shaking incubator set at 200 rpm and 37° C. The bacteria culture was adjusted to an optical density at 562 nm (OD562) to about 0.52 (10^9 cells/mL), and the resulting bacteria suspension was subsequently diluted to about 10^6 colony forming units (CFU) per mL in each sample. The control samples were bacteria incubated in TSB media without peptides. The bacteria were incubated inside a spectrophotometer (Spectra-Max Paradigm, Molecular Devices, Sunnyvale, CA) at 37° C. under static conditions for 20 h, and the bacterial growth curves were measured in terms of turbidity at OD562 every 2 minutes. The normalized OD562 values of samples were calculated by subtracting the […].

CCCCCCCCCCCCCCCC(=O)N[C@H](C(=O)N[C@H](C(=O)N[C@H](C(=O)N[C@H](C(=O)N[C@@H](CCCCN)C(=O)N[C@@H](CCCCN)C(=O)N[C@@H](CCCCN)C(=O)N[C@@H](CCCCN)C(=O)NCC(=O)N[C@@H](C)C(=O)N[C@@H](CCCCN)C(=O)N[C@@H](CCCCN)C(=O)N[C@@H](C)C(=O)N[C@@H](CCCNC(=N)N)C(=O)N[C@@H](C)C(=O)N[C@@H](C)C(=O)N[C@@H](CCCCN)C(=O)N[C@@H](CCCCN)C(=O)N[C@@H](C)C(=O)N[C@@H](CCCNC(=N)N)C(=O)N[C@@H](C)C(=O)O)C(C)C)C(C)C)C(C)C)C(C)C [ACA-PA, C16-V4K4G(AKKARA)2 (SEQ ID NO: 7)] (Palmitoyl-VVVVKKKKGAKKARAAKKARA-OH; N-terminus and C-terminus assumed)
decrease in bacteria density ([1]; MRSA (Gram-positive), 60 to 100 μM): ~100 fold | number of viable bacteria colonies after mixing with heparin ([1]; MRSA, 80 μM ACA-PA, 1:1, 1:2, 1:3 ACA-PA to heparin weight ratios): positively proportional to the amount of heparin added | toxicity towards bacteria after mixing with heparin ([1]; MRSA, 80 μM ACA-PA, 1:3 ACA-PA to heparin weight ratio, 4 h): no toxicity towards bacteria | decline in bacteria density ([1]; MRSA, over 80 μM, 4 h): 100 fold | decrease of colony forming units ([1]; MRSA, over 80 μM, 4 h): two | decrease in bacteria density ([2]; MDR E. coli (Gram-negative), 60 to 100 μM): 10,000 fold | number of viable bacteria colonies after mixing with heparin ([2]; MDR E. coli, 80 μM ACA-PA, 1:1, 1:2, 1:3 ACA-PA to heparin weight ratios): positively proportional to the amount of heparin added | toxicity towards bacteria after mixing with heparin ([2]; MDR E. coli, 80 μM ACA-PA, 1:3 ACA-PA to heparin weight ratio, 4 h): no toxicity towards bacteria | reduction in bacteria density ([2]; MDR E. coli, concentrations lower than CMC, 4 h): no significant reduction in Gram-negative bacteria density | reduction of colony forming units ([2]; MDR E. coli, over 60 μM, 4 h, vs untreated control): five | decrease in bacteria density ([3]; E. coli (Gram-negative), 60 to 100 μM): 10,000 fold | reduction in bacteria density ([3]; E. coli, concentrations lower than CMC, 4 h): no significant reduction in Gram-negative bacteria density | reduction of colony forming units ([3]; E. coli, over 60 μM, 4 h, vs untreated control): five | decrease in bacteria density ([4]; S. aureus (Gram-positive), 60 to 100 μM): ~100 fold | decline in bacteria density ([4]; S. aureus, over 80 μM, 4 h): 100 fold | decrease of colony forming units ([4]; S. aureus, over 80 μM, 4 h): two | Minimum inhibitory concentration (MIC) [5]: 400 µg/mL (≈ 162 µM) | bacterial growth inhibition ([6]; 20 to 100 μM, 20 h): remarkably inhibited the proliferation | bacterial proliferation ([6]; concentrations higher than the CMC (60 μM to 100 μM)): significantly suppressed | bacterial growth inhibition ([6]; concentrations lower than the CMC): did not significantly inhibit bacterial growth
